Measured values published in patent EP0279263B1, “Indole, benzofuran, benzothiophene containing lipoxygenase inhibiting compounds” (ABBOTT LABORATORIES, priority 1987, dated 1988).

target: T1, 5-lipoxygenase (Rattus norvegicus, UniProt P12527); assay: Lipoxygenase IC50 determination (5-lipoxygenase inhibitory activity, RBL-1 cell supernatant); assay type: biochemical; conditions: 20,000xg supernatant from homogenized RBL-1 cells, radiolabelled arachidonic acid, 2% DMSO vehicle
T1 construct: 20,000xg supernatant from 6x10⁴ homogenized RBL-1 cells; endogenous in cells; host or cells: RBL-1 cells (homogenate, 20,000xg supernatant)
T1 sequence (P12527 1-673): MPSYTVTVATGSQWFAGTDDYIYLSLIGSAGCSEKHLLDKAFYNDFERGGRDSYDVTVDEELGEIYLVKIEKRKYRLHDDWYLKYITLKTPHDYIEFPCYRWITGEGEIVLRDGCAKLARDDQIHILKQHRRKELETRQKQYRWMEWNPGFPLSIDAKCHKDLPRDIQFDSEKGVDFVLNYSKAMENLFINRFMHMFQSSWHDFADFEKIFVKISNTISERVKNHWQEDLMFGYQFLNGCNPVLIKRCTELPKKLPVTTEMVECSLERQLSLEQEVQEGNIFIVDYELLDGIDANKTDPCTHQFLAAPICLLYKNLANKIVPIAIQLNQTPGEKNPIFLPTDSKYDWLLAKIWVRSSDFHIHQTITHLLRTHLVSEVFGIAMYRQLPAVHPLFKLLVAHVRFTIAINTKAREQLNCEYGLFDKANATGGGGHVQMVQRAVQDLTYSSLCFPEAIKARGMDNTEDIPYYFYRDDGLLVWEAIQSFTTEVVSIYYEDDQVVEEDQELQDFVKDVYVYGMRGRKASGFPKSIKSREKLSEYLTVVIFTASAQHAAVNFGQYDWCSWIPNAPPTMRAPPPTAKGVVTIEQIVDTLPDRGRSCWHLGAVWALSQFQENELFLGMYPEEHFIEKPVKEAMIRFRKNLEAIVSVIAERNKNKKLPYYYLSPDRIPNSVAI
Protocol: Reactions were initiated by addition of radiolabelled arachidonic acid and terminated by acidification and ether extraction. Reaction products were separated from nonconverted substrate by thin layer chromatography and measured by liquid scintillation spectroscopy. All treatments were evaluated in triplicate incubations.

Row | IC50 [µM] | Structure (SMILES)
1 | 0.5 | CC(c1cc2cc(F)ccc2s1)N(O)C(N)=O (stereo not shown) [Example 29, N-hydroxy-N-[1-(5-fluorobenzo[b]thien-2-yl)ethyl] urea]
2 | 0.38 | CC(C)C(=O)N(O)C(C)c1cc2ccccc2s1 (stereo not shown) [Example 21, N-hydroxy-N-(1-benzo[b]thien-2-ylethyl) 2-methylpropionamide]
3 | 0.2 | CNC(=O)N(O)C(C)c1cc2ccc(OCc3ccccc3)cc2o1 (stereo not shown) [Example 52, N-hydroxy-N-[1-(6-benzyloxybenzo[b]fur-2-yl)ethyl]N'-methyl urea]
4 | 0.2 | CC(C)CC(c1cc2ccccc2s1)N(O)C(N)=O (stereo not shown) [Example 48]
5 | 1.1 | CN(C)C(=O)N(O)Cc1cc2ccccc2s1 [Example 7, N-hydroxy-N-benzo[b]thien-2-ylmethyl N',N'-dimethyl urea]
6 | 2.3 | CNC(=O)N(O)Cc1cc2ccccc2o1 [Example 50, N-hydroxy-N-benzo[b]fur-2-ylmethyl N'-methyl urea]
7 | 0.51 | CC(c1cc2ccccc2s1)N(O)C(=O)NO (stereo not shown) [Example 43, N,N'-dihydroxy-N-(1-benzo[b]thien-2-ylethyl) urea]
8 | 0.19 | CC(c1cc2ccccc2s1)N(O)C(N)=S (stereo not shown) [Example 25, N-hydroxy-N-(1-benzo[b]thien-2-ylethyl) thiourea]
9 | 21 | CC(=O)N(O)C(C)C1=Cc2ccccc2S1(=O)=O (stereo not shown) [Example 12, N-hydroxy-N-[1-benzo[b]thien-2-ylethyl) acetamide 1,1-dioxide]
10 | 1.8 | CCNC(=O)N(O)C(C)c1cc2ccccc2s1 (stereo not shown) [Example 44, N-hydroxy-N-(1-benzo[b]thien-2-ylethyl) N'-ethylurea]
11 | 0.19 | CNC(=S)N(O)C(C)c1cc2ccccc2s1 (stereo not shown) [Example 45, N-hydroxy-N-(1-benzo[b]thien-2-ylethyl) N'-methyl thiourea]
12 | 2.6 | CC(=O)N(O)C(C)c1cn(C)c2ccccc12 (stereo not shown) [Example 16, N-hydroxy-N-(1-(1-methylindol-3-yl)ethyl) acetamide]
13 | 0.54 | Cc1c(C(C)N(O)C(N)=O)sc2ccccc12 (stereo not shown) [Example 10, N-hydroxy-N-[1-(3-methylbenzo[b]thien-2-yl)ethyl] urea]
14 | 0.36 | CC(c1cc2cc(Cl)cc(Cl)c2o1)N(O)C(N)=O (stereo not shown) [Example 33, N-hydroxy-N-[1-(5,7-dichlorobenzo[b]fur-2-yl)ethyl] urea]
15 | 2.9 | CC(c1cc2ccccc2[nH]1)N(O)C(N)=O (stereo not shown) [Example 53]

The remaining lines, values behind:

Row | Structure (SMILES) | IC50 [µM]
16 | CC(=O)N(O)C(C)c1csc2ccccc12 (stereo not shown) [Example 8, N-hydroxy-N-(1-benzo[b]thien-3-ylethyl) acetamide] | 1.4
17 | CC(c1cn(C)c2ccccc12)N(O)C(N)=O (stereo not shown) [Example 17, N-hydroxy-N-(1-(1-methylindol-3-yl)ethyl) urea] | 2.8
18 | CC(Cc1cc2ccccc2s1)N(O)C(N)=O (stereo not shown) [Example 30, N-hydroxy-N-(2-benzo[b]thien-2-yl-1-methylethyl) urea] | 0.46
19 | CC(C1Cc2ccccc2O1)N(O)C(N)=O (stereo not shown) [Example 42, N-hydroxy-N-[1-(2,3-dihydrobenzo[b]fur-yl)ethyl] urea] | 8.5
20 | CC(c1csc2ccccc12)N(O)C(N)=O (stereo not shown) [Example 9, N-hydroxy-N-(1-benzo[b]thien-3-ylethyl) urea] | 1.3
21 | CCOc1cccc2cc(C(C)N(O)C(N)=O)oc12 (stereo not shown) [Example 36] | 3.5
22 | CCNC(=O)N(O)Cc1cc2ccccc2s1 [Example 47, N-hydroxy-N-benzo[b]thien-2-ylmethyl-N'-ethyl urea] | 1
23 | CC(c1cc2ccc(OCc3ccccc3)cc2o1)N(O)C(N)=O (stereo not shown) [Example 51, N-hydroxy-N-[1-(6-benzyloxybenzo[b]fur-2-yl)ethyl] urea] | 0.25
24 | NC(=O)N(O)Cc1cc2ccccc2o1 [Example 49, N-hydroxy-N-benzo[b]fur-2-ylmethyl urea] | 8.2
25 | CNC(=O)N(O)C(C)c1cn(C)c2ccccc12 (stereo not shown) [Example 18, N-hydroxy-N-(1-(1-methylindol-3-yl)ethyl) N'-methyl urea] | 3.7
26 | Cc1ccc(C)c2sc(C(C)N(O)C(N)=O)cc12 (stereo not shown) [Example 28, N-hydroxy-N-[1-(4,7-dimethylbenzo[b]thien-2-yl)ethyl] urea] | 0.4
27 | COc1cccc2cc(C(C)N(O)C(N)=O)oc12 (stereo not shown) [Example 34] | 1.9
28 | CC(c1cc2ccccc2o1)N(O)C(N)=O (stereo not shown) [Example 15, N-hydroxy-N-(1-benzo[b]fur-2-ylethyl) urea] | 2.7
29 | NC(=O)N(O)CC=Cc1cc2ccccc2s1 [Example 32, N-hydroxy-N-(3-benzo[b]thien-2-ylprop-2-enyl) urea] | 0.35
30 | CC(c1cc2ccccc2s1)N(O)C(=O)N(C)C (stereo not shown) [Example 4, N-hydroxy-N-(1-benzo[b]thien-2-ylethyl) N'N'-dimethyl urea] | 0.54
31 | CC(c1cc2cc(Cl)ccc2[nH]1)N(O)C(N)=O (stereo not shown) [Example 38] | 1
32 | CNC(=O)N(O)Cc1cc2ccccc2s1 [Example 46, N-hydroxy-N-benzo[b]thien-2-ylmethyl N'-methyl urea] | 1.9
33 | CC(=O)N(O)CC=Cc1cc2ccccc2s1 [Example 31, N-hydroxy-N-(3-benzo[b]thien-2-ylprop-2-enyl) acetamide] | 0.27
34 | CC(c1cc2ccccc2n1S(C)(=O)=O)N(O)C(N)=O (stereo not shown) [Example 40, N-hydroxy-N-[1-(1-methanesulfonylindol-2-yl)ethyl] urea] | 3
35 | CC(=O)n1c(C(C)N(O)C(N)=O)cc2ccccc21 (stereo not shown) [Example 39, N-hydroxy-N-[1-(1-acetylindol-2-yl)ethyl] urea] | 4
36 | CC(c1cc2ccccc2n1C)N(O)C(N)=O (stereo not shown) [Example 24, N-hydroxy-N-(1-(1-methylindol-2-yl)ethyl) urea] | 1.6
37 | CC(c1cc2ccccc2s1)N(O)C=O (stereo not shown) [Example 20, N-hydroxy-N-(1-benzo[b]thien-2-ylethyl) formamide] | 3
